Reference: patent US11000033B2, “Ketone or oxime compound, and herbicide” (NISSAN CHEMICAL CORPORATION, priority 2014, dated 2021)

Tests used:
Assay type in all cases: in vivo
Digitaria ciliaris = experiment: Test Example 5: herbicidal effect by foliage application, plastic box (symbol F); conditions: 320 g/ha, 3 weeks after application
Procedure, shortened: (§1)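 Emulsion formulation, diluted with water to the intended rate, was applied uniformly to leaves by small sprayer. Recipients were 14-day greenhouse-grown seedlings (25° C. to 30° C.). Assessment followed at 3 weeks.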

Scirpus juncoides [1] = experiment: Test Example 1: herbicidal activity, application before weed generation in submerged conditions (symbol B); conditions: application herbicide amount 320 g/ha
Procedure, shortened: (§2)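 In a flooded pot test with alluvial soil, the emulsion-formulated compound was diluted with water to a predetermined amount and applied to the floodwater immediately on the sowing day. Pots were held in a greenhouse at 25–30 °C for 3 weeks before each weed was rated.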

rice plant = experiment: Test Example 5: effect on crop by foliage application, plastic box (symbol b); conditions: 320 g/ha, 3 weeks after application
Procedure, shortened: (§3)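 Crop and weed seeds sown in spots in sterilized diluvial soil in plastic boxes and covered with about 1.5 cm soil. Plants raised in a greenhouse at 25° C. to 30° C. for foliar application.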

Abutilon theophrasti = experiment: Test Example 5: herbicidal effect by foliage application, plastic box (symbol M); conditions: 320 g/ha, 3 weeks after application
Procedure, shortened: as §1

Cyperus difformis = experiment: Test Example 3: herbicidal effect by foliage application, Wagner pot (symbol E); conditions: application herbicide amount 320 g/ha
Procedure, shortened: (§4)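 Plants sown in submerged alluvial soil (water depth 0.1–0.5 cm) in a 25–30 °C greenhouse and grown 14 days. An emulsion of the compound diluted in water to a set herbicide amount was sprayed uniformly on foliage. Effect on each plant scored 3 weeks after application.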

Monochoria vaginalis [2] = experiment: Test Example 2: herbicidal activity, application during weed generation in submerged conditions (symbol C); conditions: Table 23; application herbicide amount 320 g/ha; grade 0-5 by criteria of Test Example 1
Procedure, shortened: (§5)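 Seeds sown in flooded alluvial soil (4 cm water) were grown in a 25-30° C greenhouse. At the one- to two-leaf stage, diluted emulsion of compound was applied to the water surface at a predetermined rate. Effect was scored 3 weeks later.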

Scirpus juncoides [3] = experiment: Test Example 2: herbicidal activity, application during weed generation in submerged conditions (symbol B); conditions: Table 23; application herbicide amount 320 g/ha; grade 0-5 by criteria of Test Example 1
Procedure, shortened: as §5

[4] = tested on: Echinochloa crus-galli var. crus-galli; experiment: Test Example 3: herbicidal effect by foliage application, Wagner pot (symbol H); conditions: application herbicide amount 320 g/ha
Procedure, shortened: as §4

Chenopodium album = experiment: Test Example 5: herbicidal effect by foliage application, plastic box (symbol O); conditions: 320 g/ha, 3 weeks after application
Procedure, shortened: as §1

corn = experiment: Test Example 5: effect on crop by foliage application, plastic box (symbol c); conditions: 320 g/ha, 3 weeks after application
Procedure, shortened: as §3

Stellaria media = experiment: Test Example 5: herbicidal effect by foliage application, plastic box (symbol P); conditions: 320 g/ha, 3 weeks after application
Procedure, shortened: as §1

beet = experiment: Test Example 5: effect on crop by foliage application, plastic box (symbol f); conditions: 320 g/ha, 3 weeks after application
Procedure, shortened: as §3

Leptochloa chinensis = experiment: Test Example 3: herbicidal effect by foliage application, Wagner pot (symbol D); conditions: application herbicide amount 320 g/ha
Procedure, shortened: as §4

[5] = tested on: Echinochloa oryzacola Vasing.; experiment: Test Example 2: herbicidal activity, application during weed generation in submerged conditions (symbol A); conditions: Table 23; application herbicide amount 320 g/ha; grade 0-5 by criteria of Test Example 1
Procedure, shortened: as §5

Apera spica-venti = experiment: Test Example 5: herbicidal effect by foliage application, plastic box (symbol L); conditions: 320 g/ha, 3 weeks after application
Procedure, shortened: as §1

[6] = tested on: Echinochloa crus-galli var. crus-galli; experiment: Test Example 5: herbicidal effect by foliage application, plastic box (symbol H); conditions: 320 g/ha, 3 weeks after application
Procedure, shortened: as §1

Setaria viridis = experiment: Test Example 5: herbicidal effect by foliage application, plastic box (symbol G); conditions: 320 g/ha, 3 weeks after application
Procedure, shortened: as §1

Alopecurus myosuroides = experiment: Test Example 5: herbicidal effect by foliage application, plastic box (symbol J); conditions: 320 g/ha, 3 weeks after application
Procedure, shortened: as §1

[7] = tested on: Echinochloa oryzacola Vasing.; experiment: Test Example 1: herbicidal activity, application before weed generation in submerged conditions (symbol A); conditions: application herbicide amount 320 g/ha
Procedure, shortened: as §2

wheat = experiment: Test Example 5: effect on crop by foliage application, plastic box (symbol e); conditions: 320 g/ha, 3 weeks after application
Procedure, shortened: as §3

Monochoria vaginalis [8] = experiment: Test Example 1: herbicidal activity, application before weed generation in submerged conditions (symbol C); conditions: application herbicide amount 320 g/ha
Procedure, shortened: as §2

soybean = experiment: Test Example 5: effect on crop by foliage application, plastic box (symbol d); conditions: 320 g/ha, 3 weeks after application
Procedure, shortened: as §3

Veronica persica = experiment: Test Example 5: herbicidal effect by foliage application, plastic box (symbol R); conditions: 320 g/ha, 3 weeks after application
Procedure, shortened: as §1

transplanted rice plant = experiment: Test Example 1: effect on crop, application before weed generation in submerged conditions (symbol a); conditions: application herbicide amount 320 g/ha
Procedure, shortened: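 Rice at 2.5 leaf stage transplanted into submerged soil (4 cm depth) sown with three weed species; herbicide applied before weed emergence.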

rapeseed = experiment: Test Example 5: effect on crop by foliage application, plastic box (symbol g); conditions: 320 g/ha, 3 weeks after application
Procedure, shortened: as §3

[9] = tested on: directly sowed rice plant; experiment: Test Example 3: effect on crop by foliage application, Wagner pot (symbol b); conditions: application herbicide amount 320 g/ha
Procedure, shortened: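 Steps: fill a 1/10000-are Wagner pot with alluvial soil; add water and mix to submerge at 0.1–0.5 cm depth; sow rice plus Echinochloa crus-galli var. crus-galli, Leptochloa chinensis and Cyperus difformis; grow in a 25–30 °C greenhouse.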

Galium spurium = experiment: Test Example 5: herbicidal effect by foliage application, plastic box (symbol Q); conditions: 320 g/ha, 3 weeks after application
Procedure, shortened: as §1

Lolium multiflorum Lam. = experiment: Test Example 5: herbicidal effect by foliage application, plastic box (symbol K); conditions: 320 g/ha, 3 weeks after application
Procedure, shortened: as §1

Amaranthus retroflexus = experiment: Test Example 5: herbicidal effect by foliage application, plastic box (symbol N); conditions: 320 g/ha, 3 weeks after application
Procedure, shortened: as §1

Avena fatua = experiment: Test Example 5: herbicidal effect by foliage application, plastic box (symbol I); conditions: 320 g/ha, 3 weeks after application
Procedure, shortened: as §1

Compound	F: Digitaria ciliaris, herbicidal effect (criteria of Test Example 1) (Digitaria ciliaris)	Herbicidal effect grade, B: Scirpus juncoides (Scirpus juncoides [1])	b: directly sowed rice plant, effect on crop (criteria of Test Example 1) (rice plant)	M: Abutilon theophrasti, herbicidal effect (criteria of Test Example 1) (Abutilon theophrasti)	herbicidal effect on E, grade 0-5 (Cyperus difformis)	Herbicidal effect grade, C: Monochoria vaginalis (Monochoria vaginalis [2])	Herbicidal effect grade, B: Scirpus juncoides (Scirpus juncoides [3])	herbicidal effect on H (Echinochloa crus-galli var. crus-galli), grade 0-5 [4]	O: Chenopodium album, herbicidal effect (criteria of Test Example 1) (Chenopodium album)	c: corn, effect on crop (criteria of Test Example 1) (corn)	P: Stellaria media, herbicidal effect (criteria of Test Example 1) (Stellaria media)	f: beet, effect on crop (criteria of Test Example 1) (beet)	herbicidal effect on D (Leptochloa chinensis), grade 0-5 (Leptochloa chinensis)	Herbicidal effect grade, A: Echinochloa oryzacola Vasing. [5]	L: Apera spica-venti, herbicidal effect (criteria of Test Example 1) (Apera spica-venti)	H: Echinochloa crus-galli var. crus-galli, herbicidal effect (criteria of Test Example 1) [6]	G: Setaria viridis, herbicidal effect (criteria of Test Example 1) (Setaria viridis)	J: Alopecurus myosuroides, herbicidal effect (criteria of Test Example 1) (Alopecurus myosuroides)	Herbicidal effect grade, A: Echinochloa oryzacola Vasing. [7]	e: wheat, effect on crop (criteria of Test Example 1) (wheat)	also measured
CON=C(C)CC1CC(OC(=O)N(C)C)=C(c2c(C)cc(-c3ccc(Cl)cc3)cc2OC)C1=O (stereo not drawn) [6-081]	4 (Herbicidal ratio of 70% or higher and lower than 90%)	0 (Herbicidal ratio of 5% or lower (almost no effect))	0 (Herbicidal ratio of 5% or lower (almost no effect))	0 (Herbicidal ratio of 5% or lower (almost no effect))	0 (Herbicidal ratio of 5% or lower (almost no effect))	0 (Herbicidal ratio of 5% or lower (almost no effect))	0 (Herbicidal ratio of 5% or lower (almost no effect))	1 (Herbicidal ratio of 5% or higher and lower than 20%)	0 (Herbicidal ratio of 5% or lower (almost no effect))	5 (Herbicidal ratio of 90% or more (almost completely withered))	0 (Herbicidal ratio of 5% or lower (almost no effect))	0 (Herbicidal ratio of 5% or lower (almost no effect))	3 (Herbicidal ratio of 40% or higher and lower than 70%)	1 (Herbicidal ratio of 5% or higher and lower than 20%)	5 (Herbicidal ratio of 90% or more (almost completely withered))	4 (Herbicidal ratio of 70% or higher and lower than 90%)	0 (Herbicidal ratio of 5% or lower (almost no effect))	3 (Herbicidal ratio of 40% or higher and lower than 70%)	5 (Herbicidal ratio of 90% or more (almost completely withered))	3 (Herbicidal ratio of 40% or higher and lower than 70%)	Herbicidal effect grade, C: Monochoria vaginalis (Monochoria vaginalis [8]): 1 (Herbicidal ratio of 5% or higher and lower than 20%); d: soybean, effect on crop (criteria of Test Example 1) (soybean): 0 (Herbicidal ratio of 5% or lower (almost no effect)); R: Veronica persica, herbicidal effect (criteria of Test Example 1) (Veronica persica): 0 (Herbicidal ratio of 5% or lower (almost no effect)); Effect grade on crop, a: transplanted rice plant (transplanted rice plant): 3 (Herbicidal ratio of 40% or higher and lower than 70%); g: rapeseed, effect on crop (criteria of Test Example 1) (rapeseed): 3 (Herbicidal ratio of 40% or higher and lower than 70%); effect on crop b (directly sowed rice plant), grade 0-5 [9]: 0 (Herbicidal ratio of 5% or lower (almost no effect)); Q: Galium spurium, herbicidal effect (criteria of Test Example 1) (Galium spurium): 0 (Herbicidal ratio of 5% or lower (almost no effect)); K: Lolium multiflorum Lam., herbicidal effect (criteria of Test Example 1) (Lolium multiflorum Lam.): 4 (Herbicidal ratio of 70% or higher and lower than 90%); N: Amaranthus retroflexus, herbicidal effect (criteria of Test Example 1) (Amaranthus retroflexus): 0 (Herbicidal ratio of 5% or lower (almost no effect)); I: Avena fatua, herbicidal effect (criteria of Test Example 1) (Avena fatua): 5 (Herbicidal ratio of 90% or more (almost completely withered))
CON=C(C)CC1CC(OC(=O)N2CCOCC2)=C(c2c(C)cc(-c3ccc(Cl)cc3Cl)cc2C)C1=O (stereo not drawn) [6-090]	5 (Herbicidal ratio of 90% or more (almost completely withered))	0 (Herbicidal ratio of 5% or lower (almost no effect))	1 (Herbicidal ratio of 5% or higher and lower than 20%)	0 (Herbicidal ratio of 5% or lower (almost no effect))	0 (Herbicidal ratio of 5% or lower (almost no effect))	0 (Herbicidal ratio of 5% or lower (almost no effect))	0 (Herbicidal ratio of 5% or lower (almost no effect))	0 (Herbicidal ratio of 5% or lower (almost no effect))	0 (Herbicidal ratio of 5% or lower (almost no effect))	2 (Herbicidal ratio of 20% or higher and lower than 40%)	0 (Herbicidal ratio of 5% or lower (almost no effect))	0 (Herbicidal ratio of 5% or lower (almost no effect))	5 (Herbicidal ratio of 90% or more (almost completely withered))	3 (Herbicidal ratio of 40% or higher and lower than 70%)	2 (Herbicidal ratio of 20% or higher and lower than 40%)	4 (Herbicidal ratio of 70% or higher and lower than 90%)	5 (Herbicidal ratio of 90% or more (almost completely withered))	3 (Herbicidal ratio of 40% or higher and lower than 70%)	5 (Herbicidal ratio of 90% or more (almost completely withered))	0 (Herbicidal ratio of 5% or lower (almost no effect))	Herbicidal effect grade, C: Monochoria vaginalis (Monochoria vaginalis [8]): 0 (Herbicidal ratio of 5% or lower (almost no effect)); d: soybean, effect on crop (criteria of Test Example 1) (soybean): 0 (Herbicidal ratio of 5% or lower (almost no effect)); R: Veronica persica, herbicidal effect (criteria of Test Example 1) (Veronica persica): 0 (Herbicidal ratio of 5% or lower (almost no effect)); Effect grade on crop, a: transplanted rice plant (transplanted rice plant): 0 (Herbicidal ratio of 5% or lower (almost no effect)); g: rapeseed, effect on crop (criteria of Test Example 1) (rapeseed): 4 (Herbicidal ratio of 70% or higher and lower than 90%); effect on crop b (directly sowed rice plant), grade 0-5 [9]: 0 (Herbicidal ratio of 5% or lower (almost no effect)); Q: Galium spurium, herbicidal effect (criteria of Test Example 1) (Galium spurium): 0 (Herbicidal ratio of 5% or lower (almost no effect)); K: Lolium multiflorum Lam., herbicidal effect (criteria of Test Example 1) (Lolium multiflorum Lam.): 4 (Herbicidal ratio of 70% or higher and lower than 90%); N: Amaranthus retroflexus, herbicidal effect (criteria of Test Example 1) (Amaranthus retroflexus): 0 (Herbicidal ratio of 5% or lower (almost no effect)); I: Avena fatua, herbicidal effect (criteria of Test Example 1) (Avena fatua): 4 (Herbicidal ratio of 70% or higher and lower than 90%)
